Measurements: patent publication US10399958B2, “PPAR agonists, compounds, pharmaceutical compositions, and methods of use thereof” (Mitobridge, Inc., priority 2015, dated 2019)
Like-named read-outs stand apart in the source and are kept apart here.

Tests used:
PPAR delta = PPAR delta (Homo sapiens (Human), UniProt Q03181); experiment: PPARδ activity screen: GAL4-PPARδ LBD transactivation luciferase reporter in CV-1 cells; format: cell-based
Method: CV-1 cells were grown in DMEM+10% charcoal stripped FCS. Cells were seeded into 384-well plates the day before transfection to give a confluency of 50-80% at transfection. A total of […] containing 0.64 micrograms pCMX-PPARDelta LBD, 0.1 micrograms pCMXβGal, 0.08 micrograms pGLMH2004 reporter and 0.02 micrograms pCMX empty vector was transfected per well using FuGene transfection reagent according to the manufacturer's instructions (Roche). Cells were allowed to express protein for 48 h followed by addition of compound.
Human PPARδ was used to PCR amplify the PPARδ LBD. […] Ensuing fusions were verified by sequencing.
All compounds were dissolved in DMSO and diluted 1:1000 upon addition to the cells. Compounds were tested in quadruple in concentrations ranging from 0.001 to 100 μM. Cells were treated with compound for 24 h followed by luciferase assay. Each compound was tested in at least two separate experiments.
Medium including test compound was aspirated and washed with PBS. 50 μl PBS including 1 mM Mg++ and Ca++ were then added to each well. The luciferase assay was performed using the LucLite kit according to the manufacturer's instructions (Packard Instruments). Light emission was quantified by counting on a Perkin Elmer Envision reader. […] Beta-galactosidase assays were performed in the microwell plates using a kit from Promega and read in a Perkin Elmer Envision reader. The beta-galactosidase data were used to normalize (transfection efficiency, cell growth etc.) the luciferase data.
The activity of a compound is calculated as fold induction compared to an untreated sample. For each compound the efficacy (maximal activity) is given as a relative activity compared to GW501516, a PPARδ agonist. […] EC50 values were calculated via non-linear regression usingGraphPad PRISM (GraphPad Software, San Diego, Calif.).

[1] = Pharmacokinetic (PK) screening (i.v.) in male CD1 mice; format: in vivo, mouse; settings: for clearance: male, CD1, mouse, plasma, iv
Method: In this example, the intravenous PK profile of several PPARδ agonists disclosed herein in male CD1 mice was determined. Similar methods can be used to analyze other compounds provided herein. All compounds were administered separately to CD1 mice at 1 mg/kg (i.v.), except the comparator compound to 2c was administered at 3 mg/kg (i.v.), as noted below.

[2] = test system: Sprague-Dawley rat acute kidney injury; experiment: Ischemia-reperfusion kidney injury in rats, plasma creatinine; format: in vivo; settings: 30 mg/kg orally 4 hours after surgery, blood 24 hours after reperfusion, FIG. 11
Method: Sprague-Dawley male rats approximately 280-300 g, with ad libitum access to standard feed and water were used in these experiments. Rats were anesthetized with isoflurane and placed ventrally on a temperature controlled heated surgical platform. A skin incision was made on the dorsal surface, exposing both kidneys through flank incisions. Vascular clips were applied to both renal pedicles and occlusion lasted 45 minutes. After 45 min, the clips were removed, kidneys were monitored for successful reperfusion, and surgical sites were sutured. The sham group was subjected to similar surgical procedures, except that the occluding clamps were not applied. Four independent studies, testing each compound were performed. Compounds were formulated as a fresh daily suspension in 0.25% sodium carboxymethyl-cellulose, 0.25% Tween-80 in purified water. Compounds were dosed orally at 30 mg/kg 4 hours after animals awoke from surgery and sham surgery and IRI control animals were similarly dosed with vehicle.
Twenty-four (24) hours after reperfusion, blood was collected in K2 EDTA tubes by retro-orbital bleeding from all groups under mild isoflurane anesthesia. Plasma was separated by centrifugation at 3000 rpm for 10 minutes at 4° C. Plasma creatinine was analyzed using a fully automated clinical biochemistry analyzer (Siemens Dimension® Xpand® Plus Integrated Chemistry System)
Creatinine was tested for normal distribution in all groups via a D'Agostino-Pearson omnibus normality test and a Shapiro-Wilk normality test. Normally distributed data was subjected to an unpaired, two-tailed t test. Non-normally distributed data was subjected to a Mann-Whitney test (non-parametric). Statistical significance is determined by p<0.05 of IRI-vehicle compared to compound treated groups.

[3] = CV-1 cells, 24 h compound treatment, luciferase, read-out: PPAR delta transactivation EC50
[4] = 1 mg/kg, I.V. 1 mg/kg dose, read-out: CL
[5] = 1 mg/kg, I.V. 1 mg/kg dose, read-out: High or Low CL

Chain of PPAR delta (Q03181 128-441 limits assumed): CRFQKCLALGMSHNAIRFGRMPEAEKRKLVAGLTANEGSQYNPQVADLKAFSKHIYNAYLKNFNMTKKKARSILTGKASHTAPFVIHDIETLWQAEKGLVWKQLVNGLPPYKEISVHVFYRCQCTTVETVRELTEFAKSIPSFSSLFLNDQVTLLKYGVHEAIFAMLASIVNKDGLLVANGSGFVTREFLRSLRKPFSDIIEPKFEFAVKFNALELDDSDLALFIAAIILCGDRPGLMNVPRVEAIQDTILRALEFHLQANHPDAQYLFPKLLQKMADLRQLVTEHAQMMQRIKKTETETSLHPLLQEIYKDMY

| clearance [1, 4] [mL/min/kg] | clearance [1, 5] [mL/min/kg] | Compound | EC50 (PPAR delta; [3]) [nM] | also measured |
| --- | --- | --- | --- | --- |
|  |  | Cc1cnc(-c2ccc(C(F)(F)F)cc2)n1Cc1ccccc1OCCCCCC(=O)O [Comparator Compound 1, reference compound] | 0.1 |  |
|  |  | Cc1cnc(-c2ccc(C(F)(F)F)nc2)n1Cc1ccccc1OCCCCCC(=O)O [Comparator Compound 2, reference compound] | 3.8 |  |
| 33 | < 85 | Cc1cnc(-c2ccc(OC(F)(F)F)cc2)n1Cc1ccccc1OCCC[C@@H](C)CC(=O)O [Compound 2a, (R)-3-methyl-6-(2-((5-methyl-2-(4-(trifluoromethoxy)phenyl)-1H-imidazol-1-yl)methyl)phenoxy)hexanoic acid] |  | Plasma creatinine [2]: reduce plasma creatinine; EC50 (PPAR delta): 1 nM |
| 22 | < 85 | Cc1cnc(-c2ccc(Cl)cc2)n1Cc1ccccc1OCCC[C@@H](C)CC(=O)O [Compound 2b, (R)-6-(2-((2-(4-chlorophenyl)-5-methyl-1H-imidazol-1-yl)methyl)phenoxy)-3-methylhexanoic acid] |  | EC50 (PPAR delta): 7.8 nM |
|  |  | Cc1ccc(-c2ncc(C)n2Cc2ccccc2OCCC[C@@H](C)CC(=O)O)cc1 [Compound 2f, (R)-3-methyl-6-(2-((5-methyl-2-(p-tolyl)-1H-imidazol-1-yl)methyl)phenoxy) hexanoic acid] |  | EC50 (PPAR delta): 24.3 nM |
|  |  | Cc1cnc(-c2ccc(F)cc2)n1Cc1ccccc1OCCC[C@@H](C)CC(=O)O [Compound 2g, (R)-6-(2-((2-(4-fluorophenyl)-5-methyl-1H-imidazol-1-yl)methyl)phenoxy)-3-methylhexanoic acid] | 39 |  |
|  |  | Cc1cnc(-c2ccc(Cl)c(F)c2)n1Cc1ccccc1OCCCCC(C)(C)C(=O)O [Compound 2i, 6-(2-((2-(4-chloro-3-fluorophenyl)-5-methyl-1H-imidazol-1-yl)methyl)-phenoxy)-2,2-dimethylhexanoic acid] | 18.8 |  |
| 17 | < 85 | Cc1cnc(-c2ccc(C(F)(F)F)cc2)n1Cc1cc(F)ccc1OCCC[C@@H](C)CC(=O)O [Compound 2k, (R)-6-(4-fluoro-2-((5-methyl-2-(4-(trifluoromethyl)phenyl)-1H-imidazol-1-yl)methyl)phenoxy)-3-methylhexanoic acid] | 6.6 |  |
|  |  | Cc1cnc(-c2ccc(OC(F)F)cc2)n1Cc1ccccc1OCCC[C@@H](C)CC(=O)O [Compound 2l, (R)-6-(2-((2-(4-(difluoromethoxy)phenyl)-5-methyl-1H-imidazol-1-yl)methyl)phenoxy)-3-methylhexanoic acid] | 13.5 |  |
| 85 | < 85 | Cc1ccc(OCCC[C@@H](C)CC(=O)O)c(Cn2c(C)cnc2-c2ccc(OC(F)(F)F)cc2)c1 [Compound 2m, (R)-3-methyl-6-(4-methyl-2-((5-methyl-2-(4-(trifluoromethoxy)phenyl)-1H-imidazol-1-yl)methyl)phenoxy)hexanoic acid] | 0.5 |  |
| 62 | < 85 | Cc1cnc(-c2ccc(C(F)(F)F)nc2)n1Cc1ccccc1OCCC[C@@H](C)CC(=O)O [Compound 2n, (R)-3-methyl-6-(2-((5-methyl-2-(6-(trifluoromethyl)pyridin-3-yl)-1H-imidazol-1-yl)methyl)phenoxy)hexanoic acid] |  | Plasma creatinine [2]: reduce plasma creatinine |
|  |  | Cc1cnc(-c2ccc(C(F)F)cc2)n1Cc1ccccc1OCCC[C@@H](C)CC(=O)O [Compound 2o, (R)-6-(2-((2-(4-(difluoromethyl)phenyl)-5-methyl-1H-imidazol-1-yl)methyl)phenoxy)-3-methylhexanoic acid] | 9.9 |  |
|  |  | CSc1ccc(-c2ncc(C)n2Cc2ccccc2OCCC[C@@H](C)CC(=O)O)cc1 [Compound 2p, (R)-3-methyl-6-(2-((5-methyl-2-(4-(methylthio)phenyl)-1H-imidazol-1-yl)methyl)phenoxy)hexanoic acid] | 13.1 |  |
|  |  | Cc1cnc(-c2ccc(-c3ccco3)cc2)n1Cc1ccccc1OCCCCCC(=O)O [comparator compound to 2c, reference compound] |  | clearance ([1]; 3 mg/kg, 3 mg/kg i.v. dose, read-out: CL): 270 mL/min/kg; clearance ([1]; 3 mg/kg, 3 mg/kg i.v. dose, read-out: High or Low CL): > 85 mL/min/kg |
|  |  | Cc1cnc(-c2ccc(C(F)(F)F)cc2)n1Cc1ccccc1OCCCCCC(=O)O [comparator compound to 2d, reference compound] |  | CL / exposure after i.v. dose (result in words) ([1]; I.V. 1 mg/kg dose): Due to low exposure data could not be measured |
| 185 | > 85 | Cc1cnc(-c2ccc(OC(F)(F)F)cc2)n1Cc1ccccc1OCCCCCC(=O)O [comparator compound to 2e, reference compound] |  |  |
|  |  | Cc1cnc(-c2ccc(C(F)(F)F)nc2)n1Cc1ccccc1OCCCCCC(=O)O [comparator compound to 2n, reference compound] |  | CL / exposure after i.v. dose (result in words) ([1]; I.V. 1 mg/kg dose): Due to low exposure data could not be measured |

| Compound | clearance [1, 4] [mL/min/kg] | clearance [1, 5] [mL/min/kg] | EC50 (PPAR delta; [3]) [nM] | also measured |
| --- | --- | --- | --- | --- |
| Cc1cnc(-c2ccc(-c3ccco3)cc2)n1Cc1ccccc1OCCC[C@@H](C)CC(=O)O [Compound 2c, (R)-6-(2-((2-(4-(furan-2-yl)phenyl)-5-methyl-1H-imidazol-1-yl)methyl)phenoxy)-3-methylhexanoic acid] | 73 | < 85 | 3.7 |  |
| C/C(=C\COc1ccccc1Cn1c(C)cnc1-c1ccc(OC(F)(F)F)cc1)CCC(=O)O [Compound 2e, (E)-4-methyl-6-(2-((5-methyl-2-(4-(trifluoromethoxy)phenyl)-1H-imidazol-1-yl)methyl)phenoxy)hex-4-enoic acid] | 70 | < 85 | 0.2 |  |
| Cc1cnc(-c2ccc(C(F)(F)F)c(F)c2)n1Cc1ccccc1OCCCCC(C)(C)C(=O)O [Compound 2h, 6-(2-((2-(3-fluoro-4-(trifluoromethyl)phenyl)-5-methyl-1H-imidazol-1-yl)methyl)phenoxy)-2,2-dimethylhexanoic acid] | 25 | < 85 | 3.5 |  |
| Cc1cnc(-c2ccc(Cl)c(F)c2)n1Cc1ccccc1OCCC[C@@H](C)CC(=O)O [Compound 2j, (R)-6-(2-((2-(4-chloro-3-fluorophenyl)-5-methyl-1H-imidazol-1-yl)methyl)phenoxy)-3-methylhexanoic acid] | 38 | < 85 | 0.8 |  |
| Cc1cnc(-c2ccc(C(F)(F)F)cc2)n1Cc1ccccc1OCCCCC(C)(C)C(=O)O [Compound 2q, 2,2-dimethyl-6-(2-((5-methyl-2-(4-(trifluoromethyl)phenyl)-1H-imidazol-1-yl)methyl)phenoxy)hexanoic acid] | 11 | < 85 | 14.3 |  |
